Test results published in US20060014825A1, “Novel k99-5278 substance and a process for producing the same” (priority 2002, published 2006).
In brackets after ≈: the same amount, converted by molar mass.

Assays:
[1] = tested on: Candida albicans KFI; assay: Antifungal activity by liquid culture method (turbidity at 550 nm); assay type: cell-based; conditions: liquid medium, 27° C. for 24 hours, read-out: IC50 for growth of the test organism
Method: (§1) Samples dissolved in DMSO were added in the 96 well microplate and the solvent was distilled off in vacuo. Suspension, in which Candida albicans KF1 0.3% was inoculated in a medium (glucose 1.0% and yeast extract 0.5%, pH 6.0), 200 μl/well was added and incubated at 27° C. for 24 hours. After the incubation, turbidity was measured by using absorption spectrometer with wavelength at 550 nm. Activity was determined by setting the value without drug addition as 100%, and the concentration shown by 50% turbidity was set as IC50.

[2] = tested on: Mucor racemosus KF223; assay: as above; assay type: cell-based; conditions: Mucor racemosus KF223, liquid medium, 27° C. for 24 hours; read-out: IC50 for growth of the test organism
Method: as §1, with “Mucor racemosus KF223” for “Candida albicans KF1”

[3] = Solubility in solvent
[4] = tested on: Saccharomyces cerevisiae KF26; assay: Antifungal activity by liquid culture method (turbidity at 550 nm); assay type: cell-based; conditions: Saccharomyces cerevisiae KF26, liquid medium, 27° C. for 24 hours; read-out: IC50 for growth of the test organism
Method: as §1, with “Antifungal activities of K99-5278A substance, K99-5278B substance and K99-5278C substance by the liquid medium were performed as follows. • 1) Saccharomyces cerevisiae KF26 was used as a test organism. Samples” for “Samples”, “Saccharomyces cerevisiae KF26” for “Candida albicans KF1”

[5] = tested on: Aspergillus niger KF103 (ATCC 6275); assay: Antifungal activity by paper disc method; assay type: cell-based; conditions: ATCC6275, 10 μg, GY agar medium, 27° C. for 24 hours
Method: (§2) Biological properties of K99-5278 substance of the present invention are explained in detail hereinbelow. • (1) Assays of antifungal activities by paper disc method (filter paper disc method)
(§3) Antifungal activities of K99-5278 substance were performed using Aspergillus niger KF103 (ATCC 6275), Mucor racemosus KF223 (IFO 4581), Candida albicans KF1 and Saccharomyces cerevisiae KF26. Aspergillus niger KF103 (ATCC 6275) and Candida albicans KF1 were inoculated at 0.2%, and Mucor racemosus KF223 (IFO 4581) and Saccharomyces cerevisiae KF26 were inoculated at 0.3% in GY agar medium (glucose 1.0%, yeast extract 0.5%, agar 0.8%, pH 6.0). Activities were evaluated by paper disc method (thickness: 6 mm: Advantec Inc., Japan), and a diameter of the inhibition ring was measured after incubating at 27° C. for 24 hours.

[6] = tested on: Saccharomyces cerevisiae KF26; assay: Antifungal activity by paper disc method; assay type: cell-based; conditions: 10 μg, GY agar medium, 27° C. for 24 hours
Method: as §2, §3

[7] = tested on: Mucor racemosus KF223 (IFO 4581); assay: Antifungal activity by paper disc method; assay type: cell-based; conditions: IFO4581, 10 μg, GY agar medium, 27° C. for 24 hours
Method: as §2, §3

[8] = tested on: Candida albicans KF1; assay: Antifungal activity by paper disc method; assay type: cell-based; conditions: 10 μg, GY agar medium, 27° C. for 24 hours
Method: as §2, §3

[9] = tested on: Aspergillus niger KF103; assay: Antifungal activity by liquid culture method (turbidity at 550 nm); assay type: cell-based; conditions: Aspergillus niger KF103, liquid medium, 27° C. for 48 hours; read-out: IC50 for growth of the test organism
Method: as §1, with “Aspergillus niger KF103” for “Candida albicans KF1”, “48” for “24”

| Compound | IC50 [1] [µg/mL] | IC50 [2] [µg/mL] | Solubility in solvent ([3]; chloroform) | Solubility in solvent ([3]; dimethyl sulfoxide (DMSO)) | Solubility in solvent ([3]; ethyl acetate) | Solubility in solvent ([3]; hexane) | Solubility in solvent ([3]; methanol) | Solubility in solvent ([3]; water) | IC50 [4] [µg/mL] | zone of inhibition at 10 µg/disc [5] [mm] | zone of inhibition at 10 µg/disc [6] [mm] | zone of inhibition at 10 µg/disc [7] [mm] | zone of inhibition at 10 µg/disc [8] [mm] | IC50 [9] [µg/mL] |
| --- | --- | --- | --- | --- | --- | --- | --- | --- | --- | --- | --- | --- | --- | --- |
| CC1/C=C/C=C/C=C/C=C/C=C/C(O)CC(O)CC(O)CC(O)CCCC(O)CC(O)C(C)C(=O)OC1C (stereo not drawn) [K99-5278A substance] | 61 (≈ 114 µM) | 15 (≈ 27.9 µM) | slightly soluble | soluble | slightly soluble | insoluble | soluble | insoluble | 7.2 (≈ 13.4 µM) | 18 | 12 | 9 | 9 | 0.32 (≈ 0.596 µM) |
| CCC1OC(=O)C(C)C(O)CC(O)CCCC(O)CC(O)CC(O)C(C)C(O)/C=C/C=C/C=C/C=C/C=C/C1C (stereo not drawn) [K99-5278B substance] | 100 (≈ 177 µM) | 25 (≈ 44.3 µM) | insoluble | soluble | insoluble | insoluble | soluble | insoluble | 11.8 (≈ 20.9 µM) | 16 | 12 | 9 | 7 | 0.53 (≈ 0.938 µM) |
| CC(C)C1OC(=O)C(C)C(O)CC(O)CCCC(O)CC(O)CC(O)C(C)C(O)/C=C/C=C/C=C/C=C/C=C/C1C (stereo not drawn) [K99-5278C substance] | 140 (≈ 242 µM) | 35 (≈ 60.5 µM) | slightly soluble | soluble | slightly soluble | insoluble | soluble | insoluble | 16.6 (≈ 28.7 µM) | 15 | 9 | 8 | 8 | 0.75 (≈ 1.3 µM) |
